Source: ChEMBL document CHEMBL3046397, “Synthesis and Insecticidal Activity of 4-1, 2, 4-Thiadiazolin-3-ones” (J Pestic Sci, 1994)

Experiments:
Mythimna separata [1] = assay: Insecticidal activity against third-instar larvae Mythimna separata (Oriental armyworm) in compound treated maize leaves assessed as mortality at 0.1 ppm at 25 degC, 65% RH measured after 5 days by leaf dipping method; type: functional; settings: foliar, 120 h
Spodoptera litura [2] = assay: Insecticidal activity against third-instar larvae of Spodoptera litura in compound treated sweet potato leaves assessed as mortality at 0.1 ppm at 25 degC, 65% RH measured after 5 days by leaf dipping method; type: functional; settings: foliar, 120 h
Spodoptera litura [3] = assay: Ovicidal activity against […] Spodoptera litura in paraffin paper assessed as egg mortality at 0.5 ppm at 25 degC, 65% RH measured after 7 days by egg dipping method; type: functional; settings: 168 h
Spodoptera litura [4] = assay: Insecticidal activity against third-instar larvae of Spodoptera litura in compound treated sweet potato leaves assessed as mortality at 0.25 to 1 ppm at 25 degC, 65% RH measured after 5 days by leaf dipping method; type: functional
Spodoptera litura [5] = assay: Ovicidal activity against […] Spodoptera litura in paraffin paper assessed as egg mortality at 8 to 16 ppm at 25 degC, 65% RH measured after 7 days by egg dipping method; type: functional
Spodoptera litura [6] = assay: Ovicidal activity against […] Spodoptera litura in paraffin paper assessed as egg mortality at 31 to 125 ppm at 25 degC, 65% RH measured after 7 days by egg dipping method; type: functional
Spodoptera litura [7] = assay: Ovicidal activity against […] Spodoptera litura in paraffin paper assessed as egg mortality at 125 ppm at 25 degC, 65% RH measured after 7 days by egg dipping method; type: functional; settings: 168 h
Spodoptera litura [8] = assay: Ovicidal activity against […] Spodoptera litura in paraffin paper assessed as egg mortality at 1 to 4 ppm at 25 degC, 65% RH measured after 7 days by egg dipping method; type: functional
Spodoptera litura [9] = assay: Insecticidal activity against third-instar larvae of Spodoptera litura in compound treated sweet potato leaves assessed as mortality at 2 to 4 ppm at 25 degC, 65% RH measured after 5 days by leaf dipping method; type: functional
Mythimna separata [10] = assay: Insecticidal activity against third-instar larvae Mythimna separata (Oriental armyworm) in compound treated maize leaves assessed as mortality at 0.25 to 1 ppm at 25 degC, 65% RH measured after 5 days by leaf dipping method; type: functional
Spodoptera litura [11] = assay: Insecticidal activity against third-instar larvae of Spodoptera litura in compound treated sweet potato leaves assessed as mortality at 31 ppm at 25 degC, 65% RH measured after 5 days by leaf dipping method; type: functional; settings: foliar, 120 h
Mythimna separata [12] = assay: Insecticidal activity against third-instar larvae Mythimna separata (Oriental armyworm) in compound treated maize leaves assessed as mortality at 2 to 4 ppm at 25 degC, 65% RH measured after 5 days by leaf dipping method; type: functional
Mythimna separata [13] = assay: Insecticidal activity against third-instar larvae Mythimna separata (Oriental armyworm) in compound treated maize leaves assessed as mortality at 8 to 31 ppm at 25 degC, 65% RH measured after 5 days by leaf dipping method; type: functional
Spodoptera litura [14] = assay: Insecticidal activity against third-instar larvae of Spodoptera litura in compound treated sweet potato leaves assessed as mortality at 8 to 31 ppm at 25 degC, 65% RH measured after 5 days by leaf dipping method; type: functional
Mythimna separata [15] = assay: Insecticidal activity against third-instar larvae Mythimna separata (Oriental armyworm) in compound treated maize leaves assessed as mortality at 31 ppm at 25 degC, 65% RH measured after 5 days by leaf dipping method; type: functional; settings: foliar, 120 h
Spodoptera litura [16] = assay: Metabolic stability in homogenized Spodoptera litura larvae; type: ADME, organism-based; settings: in vivo
[17] = Stability of the compound under natural condition at 25 degC for 24 hr; type: physicochemical
[18] = Metabolic stability in Spodoptera litura larvae feaces; type: ADME, organism-based; settings: faeces, read-out: Drug recovery

SMILES | mortality at 0.1 ppm (Mythimna separata [1]) | mortality (Spodoptera litura [5]) | mortality at 125 ppm (Spodoptera litura [7]) | mortality at 31 ppm (Spodoptera litura [11]) | other results
O=C(NC(=O)c1c(F)cccc1F)Nc1cc(F)c(OC(F)(F)F)cc1F | > 90% | – | – | – | mortality at 0.1 ppm (Spodoptera litura [2]): > 90%; mortality at 0.5 ppm (Spodoptera litura [3]): > 90%
O=c1nc(-c2c(F)cccc2F)sn1-c1cc(F)c(OC(F)(F)F)cc1F | > 90% | >90% | – | – | mortality (Spodoptera litura [4]): >90%
O=c1nc(-c2c(F)cccc2F)sn1-c1ccc(OC(F)(F)F)c(F)c1Cl | > 90% | – | – | – | mortality (Spodoptera litura [6]): >90%; mortality at 0.1 ppm (Spodoptera litura [2]): > 90%
O=c1nc(-c2c(F)cccc2F)sn1-c1ccc(OC(F)(F)F)c(Cl)c1F | > 90% | – | < 90% | – | mortality (Spodoptera litura [4]): >90%
O=c1nc(-c2c(F)cccc2F)sn1-c1cc(Cl)c(OC(F)(F)F)cc1F | > 90% | – | – | – | mortality (Spodoptera litura [8]): >90%; mortality (Spodoptera litura [9]): >90%
O=c1nc(-c2c(F)cccc2F)sn1-c1cc(F)c(OC(F)(F)F)cc1Cl | – | >90% | – | – | mortality (Mythimna separata [10]): >90%; mortality at 0.1 ppm (Spodoptera litura [2]): > 90%
Cc1c(OC(F)(F)F)ccc(-n2sc(-c3c(F)cccc3F)nc2=O)c1F | > 90% | >90% | – | – | mortality (Spodoptera litura [4]): >90%
O=c1nc(-c2c(F)cccc2F)on1-c1ccc(Cl)cc1 | – | – | < 90% | – | mortality (Mythimna separata [10]): >90%
O=c1nc(-c2c(Cl)cccc2Cl)on1-c1ccc(Cl)cc1 | – | – | < 90% | < 90% | mortality (Mythimna separata [12]): >90%
O=c1nc(-c2c(F)cccc2F)on1-c1ccc(OC(F)(F)F)cc1 | – | >90% | – | < 90% | mortality (Mythimna separata [12]): >90%
O=c1nc(-c2ccccc2Cl)on1-c1ccc(OC(F)(F)F)cc1 | – | – | < 90% | < 90% | mortality (Mythimna separata [10]): >90%
Cc1ccccc1-c1nc(=O)n(-c2ccc(OC(F)(F)F)cc2)o1 | – | >90% | – | < 90% | mortality (Mythimna separata [13]): >90%
O=c1nc(-c2c(F)cccc2F)on1-c1ccc(C(F)(F)F)cc1 | – | – | – | < 90% | mortality (Mythimna separata [10]): >90%
O=c1nc(-c2c(F)cccc2F)on1-c1ccc(OC(F)(F)F)c(Cl)c1 | > 90% | – | < 90% | – | mortality (Spodoptera litura [9]): >90%
O=C(NC(=O)c1c(F)cccc1F)Nc1ccc(OC(F)(F)F)c(F)c1F | > 90% | – | – | – | mortality at 0.1 ppm (Spodoptera litura [2]): > 90%; mortality at 0.5 ppm (Spodoptera litura [3]): > 90%
O=c1nc(-c2ccccc2Br)sn1-c1ccc(OC(F)(F)F)cc1 | – | >90% | – | – | mortality (Spodoptera litura [14]): >90%; mortality (Mythimna separata [13]): >90%
O=c1nc(-c2ccccc2C(F)(F)F)sn1-c1ccc(OC(F)(F)F)cc1 | – | – | < 90% | < 90% | mortality at 31 ppm (Mythimna separata [15]): < 90%
O=c1nc(-c2c(Cl)cccc2Cl)sn1-c1ccc(OC(F)(F)F)cc1 | – | – | < 90% | < 90% | mortality (Mythimna separata [12]): >90%
O=c1nc(-c2c(F)cccc2Cl)sn1-c1ccc(OC(F)(F)F)cc1 | – | >90% | – | – | mortality (Mythimna separata [10]): >90%
O=c1nc(-c2c(F)cccc2F)sn1-c1cc(Cl)c(F)c(Cl)c1F | – | >90% | – | < 90% | mortality at 31 ppm (Mythimna separata [15]): < 90%
O=c1nc(-c2c(F)cccc2F)sn1-c1cc(Cl)c(Oc2ncc(C(F)(F)F)cc2Cl)c(Cl)c1 | – | – | < 90% | < 90% | mortality (Mythimna separata [10]): >90%
O=c1nc(-c2c(F)cccc2F)sn1-c1ccc(OC(F)(F)F)cc1Cl | – | – | – | – | mortality (Spodoptera litura [8]): >90%; mortality (Mythimna separata [13]): >90%; mortality (Spodoptera litura [9]): >90%

SMILES | mortality at 0.1 ppm (Mythimna separata [1]) | mortality (Spodoptera litura [5]) | mortality at 125 ppm (Spodoptera litura [7]) | mortality at 31 ppm (Spodoptera litura [11]) | other results
O=c1nc(-c2c(F)cccc2F)sn1-c1ccc(OC(F)(F)F)c(Cl)c1 | > 90% | – | – | < 90% | mortality (Spodoptera litura [6]): >90%
Cc1cc(OC(F)(F)F)ccc1-n1sc(-c2c(F)cccc2F)nc1=O | > 90% | – | – | – | mortality (Spodoptera litura [6]): >90%; mortality (Spodoptera litura [14]): >90%
Cc1cc(-n2sc(-c3c(F)cccc3F)nc2=O)ccc1OC(F)(F)F | > 90% | – | – | – | mortality (Spodoptera litura [6]): >90%; mortality (Spodoptera litura [9]): >90%
O=c1nc(-c2c(F)cccc2F)sn1-c1ccc(OC(F)(F)F)cc1F | > 90% | >90% | – | – | mortality (Spodoptera litura [4]): >90%
O=c1nc(-c2c(F)cccc2F)sn1-c1ccc(OC(F)(F)F)c(F)c1 | – | >90% | – | – | mortality (Mythimna separata [10]): >90%; mortality (Spodoptera litura [9]): >90%
O=c1nc(-c2c(F)cccc2F)sn1-c1ccc(OC(F)(F)F)c(Cl)c1Cl | – | – | < 90% | – | mortality (Spodoptera litura [4]): >90%; mortality (Mythimna separata [10]): >90%
O=c1nc(-c2c(F)cccc2F)sn1-c1cc(Cl)c(OC(F)(F)F)cc1Cl | – | – | < 90% | – | mortality (Mythimna separata [10]): >90%; mortality (Spodoptera litura [9]): >90%
Cc1c(OC(F)(F)F)ccc(-n2sc(-c3c(F)cccc3F)nc2=O)c1C | > 90% | – | < 90% | – | mortality (Spodoptera litura [4]): >90%
Cc1cc(-n2sc(-c3c(F)cccc3F)nc2=O)c(C)cc1OC(F)(F)F | > 90% | – | < 90% | – | mortality (Spodoptera litura [9]): >90%
Cc1cc(-n2sc(-c3c(F)cccc3F)nc2=O)cc(C)c1OC(F)(F)F | – | – | < 90% | – | mortality (Mythimna separata [10]): >90%; mortality (Spodoptera litura [9]): >90%
O=c1nc(-c2c(F)cccc2F)sn1-c1ccc(OC(F)(F)F)c(F)c1F | > 90% | >90% | – | – | mortality at 0.1 ppm (Spodoptera litura [2]): > 90%
O=c1nc(-c2c(Cl)cccc2Cl)sn1-c1ccc(Cl)cc1 | – | – | < 90% | < 90% | mortality (Mythimna separata [13]): >90%
O=c1nc(-c2ccccc2Cl)sn1-c1ccc(Cl)cc1 | – | – | < 90% | – | mortality at 31 ppm (Mythimna separata [15]): < 90%
O=c1nc(-c2c(F)cccc2F)sn1-c1ccc(Cl)cc1 | – | – | < 90% | < 90% | mortality (Mythimna separata [10]): >90%
O=c1nc(-c2c(F)cccc2F)sn1-c1ccc(C(F)(F)F)cc1 | > 90% | >90% | – | < 90% | –
O=c1nc(-c2c(F)cccc2F)sn1-c1ccc(OC(F)(F)F)cc1 | > 90% | >90% | – | – | mortality (Spodoptera litura [14]): >90%
Cc1ccccc1-c1nc(=O)n(-c2ccc(OC(F)(F)F)cc2)s1 | – | >90% | – | < 90% | mortality (Mythimna separata [12]): >90%
O=c1nc(-c2ccccc2F)sn1-c1ccc(OC(F)(F)F)cc1 | – | >90% | – | – | mortality (Spodoptera litura [14]): >90%; mortality (Mythimna separata [12]): >90%
O=c1nc(-c2ccccc2Cl)sn1-c1ccc(OC(F)(F)F)cc1 | – | – | – | – | mortality (Mythimna separata [10]): >90%; mortality (Spodoptera litura [8]): >90%; Drug recovery (Spodoptera litura [16]): 10.4%; Stability [17]: Stable; dose excreted [18]: 3.5%; mortality (Spodoptera litura [14]): >90%
O=C(NC(=O)c1c(F)cccc1F)Nc1ccc(Cl)cc1 [DIFLUBENZURON] | > 90% | – | – | < 90% | mortality (Spodoptera litura [8]): >90%
O=C(NC(=O)c1ccccc1Cl)Nc1ccc(OC(F)(F)F)cc1 [TRIFLUMURON] | > 90% | – | – | – | mortality (Spodoptera litura [14]): >90%; mortality at 0.5 ppm (Spodoptera litura [3]): > 90%
